Data reported in paper PMC12153294 (mBio, 2025).
“And” between values parts separate entries of the source, which are not always exact repeats. Equal values may be shown once. Read-outs that look alike come from different tables or passages of the source.

Key:
[1] = AlphaScreen counter screen with Bn-His6 control peptide; conditions: same figure table as Mac1 IC50 (μM), NI not defined; for IC50: Bn-His peptide control, unit inferred
Procedure: The AlphaScreen reactions were carried out in 384-well plates (Alphaplate, PerkinElmer, Waltham, MA) in a total volume of 40 µL in buffer containing 25 mM HEPES (pH 7.4), 100 mM NaCl, 0.5 mM TCEP, 0.1% BSA, and 0.05% CHAPS. All reagents were prepared as 4× stocks, and 10 µL of each reagent was added to a final volume of 40 µL. All compounds were transferred acoustically using ECHO 555 (Beckman Inc) and preincubated after mixing with purified His-tagged macrodomain protein (250 nM) for 30 min at RT, followed by the addition of a 10 amino acid biotinylated and ADP-ribosylated peptide [ARTK(Bio) QTARK (Aoa-RADP)S] (Cambridge peptides) (625 nM). After 1 h incubation at RT, streptavidin-coated donor beads (7.5 µg/mL) and nickel chelate acceptor beads (7.5 µg/mL) (PerkinElmer AlphaScreen Histidine Detection Kit) were added under low light conditions, and plates were shaken at 400 rpm for 60 min at RT protected from light. Plates were kept covered and protected from light at all steps and read on the BioTek plate reader using an AlphaScreen 680 excitation/570 emission filter set. For counter screening of the compounds, 25 nM biotinylated and hexahistidine-tagged linker peptide (Bn-His6) (PerkinElmer) was added to the compounds, followed by the addition of beads as described above. For data analysis, the percent inhibition was normalized to positive (DMSO+ labeled peptide) and negative (DMSO + macrodomain + peptide, no ADPr) controls. The IC50 values were calculated via four-parametric non-linear regression analysis, constraining bottom (=0), top (=100), & Hillslope (=1) for all curves.

SARS-CoV-2 Mac1 [2] = biological target: T1, SARS-CoV-2 Mac1 (Severe acute respiratory syndrome coronavirus 2, UniProt P0DTD1); experiment: biochemical; conditions: inhibition of Mac1 binding to ADP-ribosylated peptide; average of 2 independent experiments; read-out: Mac1 IC50 (AlphaScreen assay)
L929 cells = experiment: Cell viability, MTT assay, L929 cells; assay type: cell-based; conditions: concentrations tested
Procedure: (§1) Delayed brain tumor (DBT), L929, and Calu3 Cellular metabolic activity was assessed using a CyQUANT MTT cell proliferation assay (Thermo Fisher Scientific) by following the manufacturer’s instructions.

JHMV-nLuc = assay type: cell-based, murine hepatitis virus (MHV)
DBT cells = experiment: Cell viability, MTT assay, DBT cells; assay type: cell-based; conditions: concentrations tested
Procedure: as §1

[3] = LogD determination, shake-flask method; assay type: physicochemical; conditions: octanol/PBS, pH 7.4
Procedure: In total, 0.11 mg of each compound was weighed out into 2 mL centrifuge tubes; 1 mL of octanol-saturated PBS or 0.1M HCl was added to each centrifuge tube and vortexed to dissolve. Then, 0.5–1.0 mL of the PBS-saturated octanol was added to the 0.5–1.0 mL octanol-saturated PBS supernatant and vortexed. Next, 100 μL of the octanol-saturated PBS phase from each centrifuge tube was added to separate UPLC vials; 100 μL of 50:50 MP H2O:ACN was added to each vial and vortexed. The remaining octanol-saturated PBS layer was removed from the vial using a micropipette and stored in a separate vial, and 100 μL of the PBS-saturated octanol layer from each centrifuge tube was added to separate UPLC vials. In total, 100 μL of 50:50 MP H2O:ACN was added to each vial and vortexed. These procedures were repeated in triplicate and then analyzed by UPLC/UV-VIS.

SARS-CoV-2 Mac1 [4] = biological target: T1, SARS-CoV-2 Mac1; experiment: Differential scanning fluorimetry (DSF) thermal shift assay; assay type: binding; conditions: thermal stability of SARS-CoV-2 Mac1, increasing compound concentrations
Procedure: Thermal shift assay with DSF involved the use of LightCycler 480 Instrument (Roche Diagnostics). In total, a 15 µL mixture containing 8 × SYPRO Orange (Invitrogen) and 10 µM macrodomain protein in buffer containing 20 mM HEPES-NaOH, pH 7.5, and various concentrations of ADP-ribose or hit compounds was mixed on ice in a 384-well PCR plate (Roche). Fluorescent signals were measured from 25 to 95°C in 0.2°C/30/S steps (excitation, 470–505 nm; detection, 540–700 nm). The main measurements were carried out in triplicate. Data evaluation and Tm determination involved the use of the Roche LightCycler 480 Protein Melting Analysis software, and data fitting calculations involved the use of single-site binding curve analysis on GraphPad Prism. The thermal shift (ΔTm) was calculated by subtracting the Tm values of the DMSO from the Tm values of the compounds.

Mac1 = conditions: cited from earlier work
JHMV [5] = assay type: cell-based, murine hepatitis virus (MHV); conditions: 150 μM
JHMV [6] = experiment: microbe, parasite or virus in culture; assay type: cell-based, murine hepatitis virus (MHV); conditions: for Concentration at which infectious virus production was inhibited: lowest effective concentration tested
JHMV-WT [7] = experiment: microbe, parasite or virus in culture; assay type: cell-based, murine hepatitis virus (MHV); conditions: for EC50: Murine coronavirus, read-out: EC50, % JHMV-WT inhibition on DBT cells
JHMV-WT [8] = experiment: microbe, parasite or virus in culture; assay type: cell-based, murine hepatitis virus (MHV); conditions: for Inhibition of MHV, dose-response: 50 to 200 μM, stated for both DBT and L929 cells, better activity on DBT
Calu-3 cells = experiment: Cell viability, MTT assay, Calu-3 cells; assay type: cell-based
Procedure: as §1

MERS-CoV = assay type: cell-based
[9] = test system: SARS-CoV-2 (Wuhan strain); experiment: microbe, parasite or virus in culture; assay type: cell-based; conditions: for EC50: Severe acute respiratory syndrome coronavirus 2, Calu-3, presence of IFN-γ, estimated from fold reductions, read-out: EC50 against SARS-CoV-2
[10] = read-out: Reported EC50; cited from earlier work
[11] = Calu-3, IFN-γ pre-treated (100 U), 12.5 μM
[12] = Calu-3, IFN-γ pre-treated (100 U), 25 μM

SMILES | IC50 [1] | IC50 (SARS-CoV-2 Mac1 [2]) | Cell viability (MTT), words (L929 cells) | JHMV-nLuc replication (luciferase activity), words (JHMV-nLuc) | Cell viability (MTT), words (DBT cells) | logD [3] | DSF assay ΔTm (SARS-CoV-2 Mac1 [4]) | EC50 (JHMV-WT [7]) | other results
O=C(O)C(Cc1c[nH]c2ccccc12)Nc1ncnc2[nH]ccc12 (stereo not shown) [Compound 4a] | > 100 µM | 6.1 µM | do not impact the viability | did not affect JHMV replication | do not impact the viability | -0.61 | 4.32 °C | – | Mac1 enzyme activity (Mac1): inhibited Mac1 enzyme activity
O=C(O)C(Cc1c[nH]c2ccccc12)Nc1ncnc2[nH]ccc12 (stereo not shown) [Compound 4b] | > 100 µM | 1.66 µM and < 2 µM | – | did not affect JHMV replication | – | – | 4.46 °C | – | Bn-His IC50 (AlphaScreen counter screen) ([1]; unit not given): almost no inhibition
COC(=O)[C@H](Cc1c[nH]c2ccccc12)Nc1ncnc2[nH]ccc12 [Compound 5a] | > 100 µM | 14.1 µM | do not impact the viability | inhibited JHMV replication | do not impact the viability | 1.5 | 0.97 °C | – | Fold change in PFU/mL, 5a versus DMSO (JHMV [5]; passage 1 (P1)): 3.17 X; Fold change in PFU/mL, 5a versus DMSO (JHMV [5]; passage 2 (P2)): -2.0 X; Fold change in PFU/mL, 5a versus DMSO (JHMV [5]; passage 3 (P3)): -1.1 X; Concentration at which infectious virus production was inhibited (JHMV [6]): 200 µM
CC(C)OC(=O)[C@H](Cc1c[nH]c2ccccc12)Nc1ncnc2[nH]ccc12 [Compound 5c] | 25.5 µM | 3.66 µM | do not impact the viability | inhibited JHMV replication | do not impact the viability | 3.33 | 0.76 °C | 18.3 µM | Decrease in replication (infectious virus) (JHMV-WT [7]; 50 μM, DBT cells): ~ 1.5 logs; Decrease in replication (infectious virus) (JHMV-WT [8]; 50 μM, L929 cells): ~3 logs; EC50 (JHMV-WT [8]; Murine coronavirus, L929, read-out: EC50, % JHMV-WT inhibition on L929 cells): 20 µM; Cell viability (MTT), words (Calu-3 cells): do not impact the viability; EC50 (JHMV [6]; Murine coronavirus, 0 to 50 μM on DBT, and 17 Cl-1 cells, read-out: EC50 for inhibition of virus production): 10 to 20 µM; Concentration at which infectious virus production was inhibited (JHMV [6]): 25 µM; MERS-CoV replication (MERS-CoV): did not inhibit MERS-CoV replication; Reduction of viral titers [9, 11]: 3 fold; Reduction of viral titers [9, 12]: 7.5 fold; Reduction of viral titers ([9]; Calu-3, absence of IFN-γ, 25 μM): ~ 2 fold; EC50 [9]: ≤ 12.5 µM
O=C(NCc1ccncc1)[C@H](Cc1c[nH]c2ccccc12)Nc1ncnc2[nH]ccc12 [Compound 6a] | > 100 µM | 8.37 µM | – | – | – | – | 1.29 °C | – | –
O=C(NCc1ccnc(Cl)c1)[C@H](Cc1c[nH]c2ccccc12)Nc1ncnc2[nH]ccc12 [Compound 6b] | > 100 µM | 7.57 µM | – | – | – | – | 1.57 °C | – | –
NC(=O)[C@H](Cc1c[nH]c2ccccc12)Nc1ncnc2[nH]ccc12 [Compound 6c] | > 100 µM | 4.04 µM | – | – | – | – | 3.06 °C | – | –
O=C(NCc1ccccn1)[C@H](Cc1c[nH]c2ccccc12)Nc1ncnc2[nH]ccc12 [Compound 6d] | 79.2 µM | 7.58 µM | do not impact the viability | inhibited light production from MHV replication in a dose-dependent manner | do not impact the viability | – | 1.39 °C | 77.1 µM | Inhibition of MHV, dose-response (JHMV-WT [8]): inhibited MHV in a dose-dependent manner
O=C(NCc1ccccn1)[C@@H](Cc1c[nH]c2ccccc12)Nc1ncnc2[nH]ccc12 [Compound 6e] | 39.6 µM | 4.85 µM | do not impact the viability | inhibited light production from MHV replication in a dose-dependent manner | do not impact the viability | – | 1.17 °C | 53.5 µM | Inhibition of MHV, dose-response (JHMV-WT [8]): inhibited MHV in a dose-dependent manner; Cell viability (MTT), words (Calu-3 cells): do not impact the viability; MERS-CoV replication (MERS-CoV): did not inhibit MERS-CoV replication; Reduction of viral titers [9, 11]: 2.7 fold; Reduction of viral titers [9, 12]: 3.8 fold; Infectious virus production ([9]; Calu-3, absence of IFN-γ, 0 to 25 μM): did not reduce infectious virus production; EC50 [9]: ≤ 12.5 µM
N#C[C@@]1(c2ccc3c(N)ncnn23)O[C@H](CO)[C@@H](O)[C@H]1O [GS-441524, reference compound] | – | – | – | inhibited virus replication at all concentrations | – | – | – | – | EC50 [10]: ~840 nM
